Broadly, the IC50 is the point on the concentration scale where inhibition reaches its midpoint.

Each structure is given as a SMILES string.

A short description of series [1]: Reversal of P-gp-mediated drug resistance in human KBV cells assessed as potentiation of paclitaxel-induced cytotoxicity by measuring paclitaxel IC50 at 10 uM.
Series [2] can be described thus: Reversal of P-gp-mediated drug resistance in human KBV cells assessed as potentiation of paclitaxel-induced cytotoxicity by measuring paclitaxel IC50 at 5 uM after 24 hrs by MTT assay (Rvb = 3837.57 uM). For orientation: Tetrazolium dyes change colour on reduction, which living cells bring about.
A short description of series [3]: Reversal of P-gp-mediated drug resistance in human KBV cells assessed as potentiation of paclitaxel-induced cytotoxicity by measuring paclitaxel IC50 at 5 uM after 48 hrs by MTT assay (Rvb = 1396.57 uM).
A short description of series [4]: Reversal of P-gp-mediated drug resistance in human KBV cells assessed as potentiation of paclitaxel-induced cytotoxicity by measuring paclitaxel IC50 at 10 uM after 48 hrs by MTT assay (Rvb = 1396.57 uM).
A short description of series [5]: Reversal of P-gp-mediated drug resistance in human KBV cells assessed as potentiation of paclitaxel-induced cytotoxicity by measuring paclitaxel IC50 at 10 uM after 24 hrs by MTT assay (Rvb = 3837.57 uM).
A short description of series [6]: Reversal of P-gp-mediated drug resistance in human KBV cells assessed as potentiation of paclitaxel-induced cytotoxicity by measuring paclitaxel IC50 at 5 uM after 72 hrs by MTT assay (Rvb = 398.34 +/- 0.58 uM).
Series [7] in a line: Reversal of P-gp-mediated drug resistance in human KBV cells assessed as potentiation of paclitaxel-induced cytotoxicity by measuring paclitaxel IC50 at 10 uM after 72 hrs by MTT assay (Rvb = 398.34 +/- 0.58 uM).

For `CC1(C)CC[C@]2(C(=O)OCc3ccccc3)CC[C@]3(C)C(=CC[C@@H]4[C@@]5(C)Cc6nccnc6[C@@](C)(CO)[C@@H]5CC[C@]43C)[C@@H]2C1`, the IC50 in series [1] came to 2.4 nM.

Consider `CN(C)CCCOC(=O)[C@]12CCC(C)(C)C[C@H]1C1=CC[C@@H]3[C@@]4(C)Cc5nccnc5[C@@](C)(CO)[C@@H]4CC[C@@]3(C)[C@]1(C)CC2`, for which the IC50 turned out to be 49.8 nM in series [2]; 21.2 nM in series [3]; 17.2 nM in series [4]; 35 nM in series [5]; 12.3 nM in series [6]; 1.59 nM in series [7].
